Assay results from article PMC8134483 (Scientific Reports, 2021).
Entries after “also recorded” stand apart in the source; their conditions may differ. Where two headings read alike, the source gives them in different places.

Columns and labels:
[1] = biological target: T1, hCB1R (Homo sapiens, UniProt P21554); experiment: biochemical; format: binding; details: for CB1R [^3H]CP55,940 Emin: bottom of the concentration–response curve, mean ± SEM; for CB1R versus CB2R selectivity, receptor affinity: CB1R vs CB2R [^3H]CP55,940 binding
T1 construct: expressed in transfected cells; host or cells: CHO-K1

[2] = biological target: T1, hCB1R; experiment: cell-based; format: cell-based; details: for EC50: CHO hCB1R, 10 µM FSK, 90 min, value with 95% CI, read-out: CB1R cAMP Inhibition EC50; for Emax: read-out: CB1R cAMP Inhibition Emax; for CB1R-dependent inhibition of FSK-stimulated cAMP, activity in words: relative to CP55940
[3] = biological target: T1, hCB1R; experiment: cell-based; format: cell-based; details: for CB1R versus CB2R selectivity, βarrestin2 recruitment: CB1R vs CB2R; for EC50: CHO hCB1R, 90 min, value with 95% CI, read-out: CB1R βarrestin2 recruitment EC50; for Emax: read-out: CB1R βarrestin2 recruitment Emax; for βarrestin2 recruitment to CB1R, activity in words: relative to CP55940
[4] = biological target: T2, hCB2R (Homo sapiens, UniProt P34972); experiment: [^3H]CP55,940 competition (radioligand displacement) binding to CB2R; details: for CB2R [^3H]CP55,940 Emin: bottom of the concentration–response curve, mean ± SEM
T2 construct: host or cells: CHO-K1 (PathHunter)

[5] = biological target: T2, hCB2R; experiment: HitHunter inhibition of FSK-stimulated cAMP, CB2R; format: cell-based
[6] = biological target: T2, hCB2R; experiment: PathHunter βarrestin2 recruitment, CB2R; format: cell-based; details: for βarrestin2 recruitment to CB2R, activity in words: relative to CP55,940
[7] = biological target: T2, hCB2R; experiment: CB2R bias analysis (operational model, cAMP inhibition vs βarrestin2); format: cell-based; details: CP55,940 as reference agonist; >0 cAMP bias, <0 βarrestin2 bias
Protocol: Estimates of Ki, EC50, Emin, and Emax were determined using non-linear regression with variable slope (four parameters) (GraphPad, Prism, v. 8.0). […] One-way analysis of variance (ANOVA), followed by Tukey’s post-hoc test, was used for statistical analyses (p < 0.05 determined to be significant); and Bartlett’s test was used to confirm homogeneity of variance (GraphPad).

T2 sequence (P34972 whole entry): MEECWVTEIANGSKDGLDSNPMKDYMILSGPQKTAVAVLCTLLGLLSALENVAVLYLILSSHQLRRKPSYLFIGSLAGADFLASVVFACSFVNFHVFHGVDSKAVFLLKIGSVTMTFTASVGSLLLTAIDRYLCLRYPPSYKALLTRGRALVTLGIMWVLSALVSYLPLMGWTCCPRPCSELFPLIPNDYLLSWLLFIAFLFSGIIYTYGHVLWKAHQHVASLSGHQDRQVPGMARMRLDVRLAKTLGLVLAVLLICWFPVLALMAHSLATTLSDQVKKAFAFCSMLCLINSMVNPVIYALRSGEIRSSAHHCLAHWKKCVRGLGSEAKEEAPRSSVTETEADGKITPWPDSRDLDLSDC
T1 sequence (P21554 whole entry): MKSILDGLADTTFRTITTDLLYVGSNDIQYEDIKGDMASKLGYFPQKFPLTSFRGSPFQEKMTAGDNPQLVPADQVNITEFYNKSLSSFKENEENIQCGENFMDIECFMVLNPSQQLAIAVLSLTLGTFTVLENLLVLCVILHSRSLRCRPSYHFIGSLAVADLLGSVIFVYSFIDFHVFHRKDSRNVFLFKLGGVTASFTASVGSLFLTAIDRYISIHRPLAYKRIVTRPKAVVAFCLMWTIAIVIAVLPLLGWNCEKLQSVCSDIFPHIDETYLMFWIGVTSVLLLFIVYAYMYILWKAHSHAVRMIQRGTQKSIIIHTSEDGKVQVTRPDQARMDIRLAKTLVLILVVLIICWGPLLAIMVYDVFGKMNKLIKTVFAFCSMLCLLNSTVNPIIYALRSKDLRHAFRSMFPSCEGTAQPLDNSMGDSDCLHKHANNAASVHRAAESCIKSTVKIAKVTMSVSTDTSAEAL

Structure (SMILES) | Ki [1] | CB1R [^3H]CP55,940 Emin [1] | EC50 [2] | Emax [2] | CB1R versus CB2R selectivity, βarrestin2 recruitment [3] | EC50 [3] | Emax [3] | Affinity for CB2R compared with CP55,940, in words [4] | Ki [4] | CB2R [^3H]CP55,940 Emin [4] | EC50 [5] | Emax [5] | EC50 [6] | Emax [6] | βarrestin2 recruitment to CB2R, activity in words [6] | CB2R bias between cAMP inhibition and βarrestin2 recruitment, ∆∆LogR (cAMP—βarr2), in words [7] | CB1R versus CB2R selectivity, receptor affinity [1] | CB1R versus CB2R selectivity, cAMP inhibition potency ([2]; CB1R vs CB2R) | βarrestin2 recruitment to CB1R, activity in words [3] | also measured
COC(=O)[C@H](Cc1ccccc1)NC(=O)c1cn(CCCCCF)c2ccccc12 [5-fluoro MPP-PICA] | 1200 nM | 59 ± 18 % | 6.4 nM | 92 ± 6.8% | minimally active at CB1R but agonists at CB2R | > 10000 nM | 170 ± 9.8% | significantly less affinity | 540 nM | 89 ± 6.3 % | 12 nM | 110 ± 13% | 630 nM | 82 ± 1.9% | not different with regard to potency relative to the reference agonist CP55,940, and produced supramaximal EMax responses | did not display a bias |  |  |  | Affinity for CB1R compared with CP55,940, in words [1]: significantly less affinity
N#CCCCCn1cc(C(=O)c2cccc3ccccc23)c2ccccc21 [AM 2232] | 0.31 nM | 66 ± 3.6 % | 190 nM | 100 ± 9.3% |  | > 10000 nM | 68 ± 1.6% | significantly less affinity | 600 nM | 73 ± 6.2 % | 1.7 nM | 86 ± 1.9% | 130 nM | 130 ± 19% | greater potency and produced supramaximal EMax responses | significant bias toward the inhibition of cAMP | greater affinity at CB1R relative to CB2R | more potent at CB2R relative to CB1R |  | CB1R-dependent inhibition of FSK-stimulated cAMP, activity in words [2]: significantly lower potency relative to CP55940, but retained full (i.e., 100%) efficacy
O=C(c1ccc(Cl)c2ccccc12)c1cn(CCCCCF)c2ccccc12 [Cl 2201] | 0.09 nM | 76 ± 2.8 % | 2.6 nM | 89 ± 3.9% |  | > 10000 nM | 16 ± 1% |  | 26 nM | 66 ± 2.5 % | 1 nM | 110 ± 8.4% | 120 nM | 17 ± 1.1% |  | significant bias toward the inhibition of cAMP | greater affinity at CB1R relative to CB2R |  | Inactive at βarrestin2 | 
CCCCCn1c2ccccc2c2cc(C(=O)c3cccc4ccccc34)ccc21 [EG 018] |  | 68 ± 6.1 % |  | 104 ± 18% |  |  | 5.2 ± 0.54% | significantly greater affinity | 1.9 nM | 53 ± 4.0 % |  | 85 ± 17% |  | 10 ± 1.9% |  | significant bias toward the inhibition of cAMP |  |  | Inactive at βarrestin2 | CB1R-dependent inhibition of FSK-stimulated cAMP, activity in words [2]: significantly lower potency relative to CP55940, but retained full (i.e., 100%) efficacy; EC50 ([5]; CHO hCB2R, 10 µM FSK, 90 min, value with 95% CI, read-out: CB2R cAMP Inhibition EC50): 51 nM; EC50 ([6]; CHO hCB2R, 90 min, value with 95% CI, read-out: CB2R βarrestin2 recruitment EC50): 770 nM
O=C(Nc1cccc2ccccc12)c1cn(Cc2ccc(F)cc2)c2ccccc12 [FDU-NNEI] | 14 nM | 41 ± 2.8% | 1 nM | 96 ± 8.1% |  | > 10000 nM | 49 ± 8.2% |  | 8.8 nM | 85 ± 8.1 % | 0.01 nM | 103 ± 7.1% | 1000 nM | 25 ± 1.3% |  | significant bias toward the inhibition of cAMP | greater affinity at CB1R relative to CB2R |  |  | CB1R versus CB2R selectivity, [^3H]CP55,940 displaced ([1]; CB1R vs CB2R): displaced more [^3H]CP55,940 at CB1R relative to CB2R
CCCCCn1cc(C(=O)c2cccc3ccccc23)cc1-c1ccccc1 [JWH 145] | 110 nM | 69 ± 7.6 % | 0.03 nM | 82 ± 9.3% |  | > 10000 nM | 27 ± 9% | significantly less affinity | 860 nM | 70 ± 6.1 % | 61 nM | 86 ± 17% | 190 nM | 15 ± 1.7% |  | significant bias toward the inhibition of cAMP |  | more potent at CB1R relative to CB2R |  | 
CCCCCn1cc(C(=O)c2ccc(CCC)c3ccccc23)c2ccccc21 [JWH 182] | 0.77 nM | 17 ± 2.2% | 24 nM | 78 ± 9.4% | inactive at CB2R but an agonist at CB1R | 1600 nM | 110 ± 9.2% |  | 6.2 nM | 21 ± 1.7 % | 25 nM | 120 ± 11% | > 10000 nM | 13 ± 1.8% | inactive in βarrestin2; also recorded: Inactive at βarrestin2 | obligate cAMP-biased ligands |  |  | equipotent, but produced supramaximal EMax responses | CB1R versus CB2R selectivity, cAMP inhibition efficacy ([2]; CB1R vs CB2R): greater efficacy at CB2R than CB1R
Cc1ccc(C(=O)c2cn(CCCCCCl)c3ccccc23)c2ccccc12 [MAM2201 N-(5-chloropentyl) analog] | 10 nM | 5.3 ± 3.0% | 2.8 nM | 98 ± 8.7% |  | > 10000 nM | 17 ± 2.7% | significantly less affinity | > 10000 nM | 40 ± 3.8 % | 580 nM | 120 ± 25% | > 10000 nM | 5.5 ± 1.9% | inactive in βarrestin2 | obligate cAMP-biased ligands | greater affinity at CB1R relative to CB2R | more potent at CB1R relative to CB2R | Inactive at βarrestin2 | βarrestin2 recruitment to CB2R, activity in words ([6]; listed as MAM-2201 N-(5-chloropentyl) analog): Inactive at βarrestin2
CC(C)C(NC(=O)c1nn(Cc2cccc(F)c2)c2ccccc12)C(N)=O (centres unmarked) [meta-AB-FUBINACA] | 16 nM | 30 ± 2.9 % | 5.7 nM | 91 ± 12% | minimally active at CB1R but agonists at CB2R | > 10000 nM | 22 ± 6.9% | significantly greater affinity | 0.63 nM | 89 ± 6.3 % | 5.4 nM | 86 ± 13% | 280 nM | 130 ± 3.7% | not different with regard to potency relative to the reference agonist CP55,940, and produced supramaximal EMax responses | did not display a bias |  |  | Inactive at βarrestin2 | 
